The supplement of paper PMC11061612

Columns and labels:
[1] = tested on: Daudi (Burkitt's Lymphoma); test: combination Emax (second highest fraction inhibited in the dose matrix, 72 h); higher = more inhibition; extreme values may be limits of the assay
How it was run: (§1)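 After 24 hours at 37°C and 5% CO2 in 1536-well plates, cells in DMEM/F12 or RPMI plus 10% FBS received two-drug dose matrices for 72 hours. Viability came from CellTiter-Glo 2.0 luminescence and was scaled as inhibition, anchored at 0 by vehicle wells and at 1 by blank wells. Combination Emax is taken as the second-highest inhibition in the matrix, and Bliss excess as the observed combination effect less EA + EB − EA·EB, with EA and EB the single-agent effects.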

[2] = tested on: NCI-H1435 (Non-Small Cell Lung Carcinoma); test: as above
How it was run: as §1

[3] = tested on: NCI-H1944 (Lung Adenocarcinoma); test: as above
How it was run: as §1

[4] = tested on: RPMI-8402 (T-Lymphoblastic Leukemia); test: as above
How it was run: as §1

[5] = tested on: BC-1 (B-Cell Non-Hodgkin's Lymphoma); test: as above
How it was run: as §1

SK-MEL-24 (Melanoma) = test: as above
How it was run: as §1

[6] = tested on: TOV-21G (Ovarian Carcinoma); test: as above
How it was run: as §1

[7] = tested on: TK (B-Cell Non-Hodgkin's Lymphoma); test: Bliss excess, mean over the matrix (fraction); higher = more synergy
How it was run: as §1

[8] = tested on: NTERA-2-cl-D1 (Other Solid Carcinomas); test: as above
How it was run: as §1

[9] = tested on: JURL-MK1 (Chronic Myelogenous Leukemia); test: as above
How it was run: as §1

[10] = tested on: SCC90 (Head and Neck Carcinoma); test: as above
How it was run: as §1

[11] = tested on: IGROV-1 (Ovarian Carcinoma); test: as above
How it was run: as §1

[12] = tested on: NCI-H1435 (Non-Small Cell Lung Carcinoma); test: as above
How it was run: as §1

[13] = tested on: RS4-11 (B-Lymphoblastic Leukemia); test: as above
How it was run: as §1

[14] = tested on: CAL-85-1 (Breast Carcinoma); test: as above
How it was run: as §1

MG-63 (Osteosarcoma) = test: as above
How it was run: as §1

HT-144 (Melanoma) = test: as above
How it was run: as §1

GCIY (Gastric Carcinoma) = test: as above
How it was run: as §1

[15] = tested on: OCI-M1 (Acute Myeloid Leukemia); test: as above
How it was run: as §1

[16] = tested on: NCI-H2170 (Squamous Cell Lung Carcinoma); test: as above
How it was run: as §1
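Throughout, for Bliss excess, mean over the matrix: after 72 h of two-drug dosing.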

Structure (SMILES) | combination Emax [1] | combination Emax [2] | combination Emax [3] | combination Emax [4] | combination Emax [5] | combination Emax (SK-MEL-24 (Melanoma)) | combination Emax [6] | Bliss excess [7] | Bliss excess [8] | Bliss excess [9] | Bliss excess [10] | Bliss excess [11] | Bliss excess [12] | Bliss excess [13] | Bliss excess [14] | Bliss excess (MG-63 (Osteosarcoma)) | Bliss excess (HT-144 (Melanoma)) | Bliss excess (GCIY (Gastric Carcinoma)) | Bliss excess [15] | Bliss excess [16]
Cn1cnc2c(F)c(Nc3ccc(Br)cc3Cl)c(C(=O)NOCCO)cc21 [Selumetinib] + C=CCn1c(=O)c2cnc(Nc3ccc(N4CCN(C)CC4)cc3)nc2n1-c1cccc(C(C)(C)O)n1 [AZD1775] (first compound max 10 µM, partner max 1 µM) | 0.662 | 0.209 | 0.706 | 1 | 0.993 | 0.68 | 0.702 | -0.0478 | 0.0314 | 0.0067 | -0.0036 | -0.0444 | 0.0007 | -0.0443 | -0.063 | -0.0327 | -0.0127 | 0.0057 | 0 | -0.0838
CC(=O)Nc1cccc(-n2c(=O)n(C3CC3)c(=O)c3c(Nc4ccc(I)cc4F)n(C)c(=O)c(C)c32)c1 [Trametinib] + Cc1nc(-c2cn3c(n2)-c2ccc(-c4cnn(C(C)(C)C(N)=O)c4)cc2OCC3)n(C(C)C)n1 [Taselisib] (first compound max 1 µM, 7x7, partner max 10 µM) | 0.523 | 0.896 | 0.985 | 0.777 | 0.546 | 0.997 | 0.817 | -0.0052 | 0.022 | -0.0107 | 0.0348 | -0.0339 | 0.107 | 0.0927 | 0.213 | 0.0237 | 0.0234 | 0.0252 | 0.0652 | 0.029
COc1nnc2ccc(N3CCC(c4ccc(OCCN5CCN(C)C(=O)[C@H]5C)cc4)CC3)nn12 [AZD5153] + C=CCn1c(=O)c2cnc(Nc3ccc(N4CCN(C)CC4)cc3)nc2n1-c1cccc(C(C)(C)O)n1 [AZD1775] (first compound max 1 µM, partner max 1 µM) | 0.753 | 0.24 | 0.84 | 1 | 0.979 | 0.604 | 0.891 | -0.0554 | 0.0115 | -0.0006 | -0.0282 | -0.0858 | 0.0179 | 0.0184 | -0.0551 | -0.0419 | 0.0394 | -0.0136 | -0.0449 | 0.06
COc1cccc2c1C(=O)c1c(O)c3c(c(O)c1C2=O)C[C@@](O)(C(=O)CO)C[C@@H]3O[C@H]1C[C@H](N)[C@H](O)[C@H](C)O1 [Doxorubicin] + Cc1cc2ncnn2cc1Nc1ncc2c(n1)n(C1CCOCC1)c(=O)n2C [AZD7648] (first compound max 1 µM, 7x7, partner max 10 µM) | 0.956 | 0.198 | 0.625 | 1 | 1 | 0.725 | 0.561 | 0.0292 | 0.0426 | 0.0792 | -0.0226 | 0.0222 | 0.0002 | 0.171 | 0.0095 | 0.0908 | 0.0302 | 0.0606 | 0.102 | 0.0706
CC1(C)CCC(CN2CCN(c3ccc(C(=O)NS(=O)(=O)c4ccc(NCC5CCOCC5)c([N+](=O)[O-])c4)c(Oc4cnc5[nH]ccc5c4)c3)CC2)=C(c2ccc(Cl)cc2)C1 [Venetoclax] + Cc1cc2ncnn2cc1Nc1ncc2c(n1)n(C1CCOCC1)c(=O)n2C [AZD7648] (first compound max 1 µM, 7x7, partner max 10 µM) | 0.247 | 0.165 | 0.353 | 0.287 | 0.516 | 0.248 | 0.195 | 0.0006 | -0.0216 | -0.0068 | 0.118 | -0.0589 | -0.0088 | -0.0149 | -0.0251 | -0.0405 | -0.0798 | -0.0232 | -0.0153 | -0.0109
CC(=O)c1c(C)c2cnc(Nc3ccc(N4CCNCC4)cn3)nc2n(C2CCCC2)c1=O [Palbociclib] + Cc1c2c(nn1C)CSCc1cc(n(C)n1)CSc1cc(c3ccccc3c1)OCCCc1c(C(=O)O)n(C)c3c-2c(Cl)ccc13 [AZD5991] (first compound max 10 µM, 7x7, partner max 1 µM) | 0.571 | 0.171 | 0.633 | 0.974 | 1 | 0.283 | 0.488 | -0.0191 | 0.019 | -0.112 | -0.0224 | 0.0122 | -0.0308 | -0.0519 | -0.0101 | 0.0096 | -0.0757 | -0.0198 | 0.033 | -0.0189
COc1cccc(OCCCN)c1-c1cc(Nc2cnc(C#N)cn2)n[nH]1 [Prexasertib] + CN(C)CCCOc1ccc(-c2ccc3ncc4c(c3c2)n(C2CCOCC2)c(=O)n4C)cn1 [AZD0156] (first compound max 1 µM, 7x7, partner max 1 µM) | 0.965 | 0.365 | 0.785 | 1 | 0.984 | 0.624 | 0.621 | -0.0412 | 0.0083 | 0.0231 | -0.0634 | -0.0283 | 0.0385 | -0.0548 | -0.0157 | 0.0072 | -0.0135 | -0.0072 | -0.0504 | 0.0156
Cc1c2c(nn1C)CSCc1cc(n(C)n1)CSc1cc(c3ccccc3c1)OCCCc1c(C(=O)O)n(C)c3c-2c(Cl)ccc13 [AZD5991] + CCN(CCO)CCCOc1ccc2c(Nc3cc(CC(=O)Nc4cccc(F)c4)[nH]n3)ncnc2c1 [AZD2811] (first compound max 1 µM, 7x7, partner max 1 µM) | 0.806 | 0.313 | 0.35 | 1 | 1 | 0.362 | 0.4 | 0.0228 | 0.0704 | 0.098 | 0.081 | -0.0053 | 0.0411 | -0.0061 | -0.0011 | 0.0186 | 0.0561 | -0.0183 | 0.068 | 0.0348
CCN(CCO)CCCOc1ccc2c(Nc3cc(CC(=O)Nc4cccc(F)c4)[nH]n3)ncnc2c1 [AZD2811] + C[C@@H]1COCCN1C2=NC(=NC(=C2)C3(CC3)[S@](=N)(=O)C)C4=C5C=CNC5=NC=C4 [AZD6738] (first compound max 1 µM, 7x7, partner max 10 µM) | 0.851 | 0.17 | 0.733 | 1 | 0.921 | 0.428 | 0.56 | -0.0108 | -0.065 | 0.027 | 0.019 | -0.0453 | -0.0311 | 0.0023 | 0.0098 | 0.011 | -0.0711 | -0.0326 | 0.0009 | -0.0191
CC1(C)CCC(CN2CCN(c3ccc(C(=O)NS(=O)(=O)c4ccc(NCC5CCOCC5)c([N+](=O)[O-])c4)c(Oc4cnc5[nH]ccc5c4)c3)CC2)=C(c2ccc(Cl)cc2)C1 [Venetoclax] + C1CN(CCC1(C(=O)N[C@@H](CCO)C2=CC=C(C=C2)Cl)N)C3=NC=NC4=C3C=CN4 [Capivasertib] (first compound max 1 µM, 7x7, partner max 3 µM) | 0.205 | 0.154 | 0.249 | 0.498 | 0.523 | 0.361 | 0.646 | -0.0111 | -0.0574 | -0.0259 | 0.0282 | -0.0182 | 0.0014 | -0.003 | -0.031 | -0.0862 | -0.0575 | -0.0778 | -0.0441 | -0.0434
CN(CCO)CC[C@H](CSc1ccccc1)Nc1ccc(S(=O)(=O)NC(=O)c2ccc(N3CCC([C@@H](O)c4ccccc4-c4ccc(Cl)cc4)CC3)cc2)cc1S(=O)(=O)C(F)(F)F [AZD4320] + C[C@@H](Nc1cc(F)cc(F)c1)c1cc(C(=O)N(C)C)cc2c(=O)cc(N3CCOCC3)oc12 [AZD8186] (first compound max 1 µM, 7x7, partner max 3 µM) | 0.771 | 0.966 | 0.767 | 0.994 | 0.461 | 0.772 | 0.37 | 0.0312 | 0.0543 | 0.0149 | 0.0276 | 0.042 | 0.131 | 0.0239 | 0.0145 | -0.0149 | 0.0944 | 0.0022 | 0.0278 | 0.0284
COc1nnc2ccc(N3CCC(c4ccc(OCCN5CCN(C)C(=O)[C@H]5C)cc4)CC3)nn12 [AZD5153] + Cc1c2c(nn1C)CSCc1cc(n(C)n1)CSc1cc(c3ccccc3c1)OCCCc1c(C(=O)O)n(C)c3c-2c(Cl)ccc13 [AZD5991] (first compound max 1 µM, 7x7, partner max 1 µM) | 0.916 | 0.296 | 0.594 | 1 | 1 | 0.772 | 0.744 | -0.0019 | 0.0698 | -0.055 | 0.0814 | -0.0069 | -0.0108 | 0.0102 | -0.0157 | -0.0302 | -0.0094 | -0.0727 | -0.018 | -0.0283
Cc1c2c(nn1C)CSCc1cc(n(C)n1)CSc1cc(c3ccccc3c1)OCCCc1c(C(=O)O)n(C)c3c-2c(Cl)ccc13 [AZD5991] + CC1(C)CCC(CN2CCN(c3ccc(C(=O)NS(=O)(=O)c4ccc(NCC5CCOCC5)c([N+](=O)[O-])c4)c(Oc4cnc5[nH]ccc5c4)c3)CC2)=C(c2ccc(Cl)cc2)C1 [Venetoclax] (first compound max 1 µM, 7x7, partner max 1 µM) | 0.258 | 0.206 | 0.214 | 0.932 | 1 | 0.336 | 0.209 | 0.174 | 0.0217 | -0.0133 | 0.0246 | -0.0326 | 0.0174 | 0.0963 | -0.0296 | 0.0034 | 0.005 | 0.0076 | -0.0076 | -0.0333
